Literature values as cited in patent US6001802A, “Platelet-derived growth factor analogues” (Trigen Limited, priority 1993, dated 1999).
Where no end group is shown, it is not given here.

Key:
PDGF β-receptors = PDGF β-receptors (Homo sapiens, UniProt P09619); conditions: reference [6]
[1] = test system: smooth muscle cells of injured arteries; conditions: administration of PDGF, rat angioplasty model [19]

Sequence of PDGF β-receptors (P09619 33-1106): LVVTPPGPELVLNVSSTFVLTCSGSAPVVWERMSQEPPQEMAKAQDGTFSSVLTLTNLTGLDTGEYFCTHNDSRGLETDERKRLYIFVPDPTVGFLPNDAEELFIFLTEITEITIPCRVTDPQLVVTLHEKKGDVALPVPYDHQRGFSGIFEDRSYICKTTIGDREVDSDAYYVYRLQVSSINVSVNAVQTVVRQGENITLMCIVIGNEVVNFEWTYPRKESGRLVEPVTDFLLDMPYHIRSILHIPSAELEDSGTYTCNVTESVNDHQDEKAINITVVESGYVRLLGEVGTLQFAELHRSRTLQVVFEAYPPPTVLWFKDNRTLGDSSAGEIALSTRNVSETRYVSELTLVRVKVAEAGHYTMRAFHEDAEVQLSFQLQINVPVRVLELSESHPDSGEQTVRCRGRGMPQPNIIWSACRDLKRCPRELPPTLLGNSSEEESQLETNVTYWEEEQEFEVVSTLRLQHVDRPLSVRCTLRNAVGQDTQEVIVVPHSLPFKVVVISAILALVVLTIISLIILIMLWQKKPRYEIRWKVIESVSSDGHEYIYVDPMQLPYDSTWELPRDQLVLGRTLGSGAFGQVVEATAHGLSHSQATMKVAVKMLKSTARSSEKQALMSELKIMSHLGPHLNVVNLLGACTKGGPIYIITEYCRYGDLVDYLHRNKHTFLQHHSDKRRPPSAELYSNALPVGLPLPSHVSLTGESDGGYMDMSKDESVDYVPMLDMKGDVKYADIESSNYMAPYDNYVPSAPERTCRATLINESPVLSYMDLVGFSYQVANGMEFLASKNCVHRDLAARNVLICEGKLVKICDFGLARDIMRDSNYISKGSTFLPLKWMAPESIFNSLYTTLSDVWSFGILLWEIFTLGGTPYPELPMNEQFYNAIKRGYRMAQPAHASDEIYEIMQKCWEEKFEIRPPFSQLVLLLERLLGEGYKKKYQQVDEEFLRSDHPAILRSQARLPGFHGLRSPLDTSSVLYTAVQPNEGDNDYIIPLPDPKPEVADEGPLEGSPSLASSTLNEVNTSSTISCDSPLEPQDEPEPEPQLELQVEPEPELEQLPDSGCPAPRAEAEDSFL

| Substance | antagonist for PDGF (PDGF β-receptors) | SMC migration from the media to the intima [1] [fold] | SMC proliferation in the media [1] |
| --- | --- | --- | --- |
| ANFLVW - - - EIVRKKP (also: N-terminal ANFLVW segment joined by an unspecified link (- - -)) [literature peptide of PDGF-B chain residues 35-40 and 78-83 [6]] | effective as an antagonist for PDGF | – | – |
| PDGF: 28-31 KD dimeric, highly basic glycoprotein, potent mitogen for connective tissue cells | – | 20 | 2-3 fold |
